Laboratory results from patent US20240216396A1, “NEUROACTIVE STEROID FOR USE IN TREATING MAJOR DEPRESSIVE DISORDER AND […] A LACTATING FEMALE” (Sage Therapeutics, Inc., priority 2021, published 2024).

Columns and labels:
plasma protein = test: Plasma protein binding analysis of blood samples from healthy lactating participants; assay type: in vitro ADME; conditions: female, human, across participants, 30 mg once-daily oral with food for 5 days, read-out: free fraction in plasma (plasma protein binding)
Excerpt: (§1) Compound (1) is an investigational, synthetic, oral neuroactive steroid under investigation as a once-daily therapy for major depressive disorder and postpartum depression. This open-label study evaluated the extent of Compound (1) transfer into breast milk, breast milk production (volume), pharmacokinetics (PK), plasma protein binding, safety, and tolerability in healthy lactating participants.
(§2) Healthy volunteers (N=15) aged 18-45 years, >12 weeks postpartum, actively lactating, and pumping or breast feeding ≥3 times per day orally self-administered Compound (1) 30 mg once-daily with food for 5 days. Breast milk was collected from Day −3 through Day 12. Blood samples for PK and plasma protein binding analysis were collected predose (Day 1), on Days 5-6, and during follow-up (Days 7, 9, and 12). The relationship between plasma and breast milk concentrations was examined with population PK modeling.

[1] = Safety and tolerability in healthy lactating participants; assay type: in vivo, human
Excerpt: as §1, §2

[2] = Population PK modeling of the relationship between plasma and breast milk concentrations; assay type: in vivo, human
Protocol: as §2

[3] = Breast milk production (volume) in healthy lactating participants; assay type: in vivo, human; conditions: 30 mg once-daily oral for 5 days; inter-participant variability noted
Excerpt: as §1, §2

[4] = Open-label study: transfer of Compound (1) into breast milk of healthy lactating women; assay type: in vivo, human
Excerpt: as §1, §2

[5] = test system: synaptic and extrasynaptic GABAA receptors; conditions: cited from earlier work

Question: What does the source list for `C[C@@]1(O)CC[C@H]2[C@H](CC[C@@H]3[C@@H]2CC[C@]2(C)[C@@H](C(=O)Cn4cc(C#N)cn4)CC[C@@H]32)C1` [Compound (1), 1-(2-((3R,5R,8R,9R,10S,13S,14S,17S)-3-hydroxy-3,13-dimethylhexadecahydro-1H-cyclopenta[a]phenanthren-17-yl)-2-oxoethyl)-1H-pyrazole-4-carbonitrile]?
Answer: fraction unbound (plasma protein): ≤ 0.0052; tolerability ([1]; 30 mg for 5 days, healthy lactating participants): well-tolerated; adverse events reported ([1]; 30 mg once-daily oral for 5 days, N=15): No deaths, serious adverse events, moderate or severe treatment-emergent adverse events (TEAEs), or TEAEs leading to discontinuation or study withdrawal were reported; Kp ([2]; female, human, breast milk/plasma, oral, 30 mg, constant, population PK modeling, read-out: partition coefficient between milk and plasma): 0.501; relationship of plasma concentrations with time or collected milk volume ([2]; in vivo): no apparent relationship; between-subject variability in milk/plasma partitioning ([2]; population PK modeling): 23%; decrease of volume of milk collected from baseline [3]: 8.3%; breast milk concentration relative to plasma concentration ([4]; 30 mg once-daily for 5 days): approximately one-half; daily infant dose ([4]; Day 5, 30 mg once-daily oral for 5 days): 0.00125 mg/kg/day; estimated mean relative infant dose (RID) ([4]; Day 5, 30 mg once-daily oral for 5 days, compared to maternal dose): 0.357%; action on GABAA receptors [5]: positive allosteric modulator
